In US12528790B2, “Amide derivative having antiviral activity” (Shionogi & Co., Ltd., priority 2020, dated 2026) one finds EC50 data, which are given here for 35 compounds.

In general, EC50 refers to the concentration that produces a half-maximal response.

For the first assay, the system named is RSV A2 strain. Kind of assay: In vitro CPE (CytoPathic Effect) inhibition effect evaluation test, RSV type A. It counts as cell-based. Particulars: human respiratory syncytial virus, HEp-2, 96 h, read-out: EC50, inhibitory effect against RSV type A (CPE inhibition). The method in brief:
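EC50 is the concentration giving 50% inhibition of virus-induced cytopathic effect, fitted by nonlinear regression from CellTiter-Glo 2.0 viability. Compounds in 3-fold series were co-incubated at 37 °C with HEp-2 cells and RSV: A2 strain for 4 days, B (Wash/18537) for 5 days; uninfected wells served as control.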
(Damage to the host cells serves as the signal in cytopathic effect assays.)
For the compound `Cn1c(C2CCOCC2)c(-c2ccc(C(=O)NC3(C(=O)O)C4CC5CC(C4)CC3C5)c(C(F)(F)F)n2)c2ccc(OC3CCN(c4ncccn4)CC3)cc21` (centres unmarked) [Compound I-270], the concentration giving a half-maximal response (EC50) was 0.037 µM.

Staying with this assay, now noted: human respiratory syncytial virus; inhibitory effect against RSV type A (RSV A2 strain), HEp-2 cells, CPE inhibition; read-out: EC50.
Consider `O=C(NC1(C(=O)O)C2CC3CC(C2)CC1C3)c1ccc(-c2cn(C3CCOCC3)c3cc(OC4CCN(c5ncccn5)CC4)c(F)cc23)nc1C(F)(F)F` (centres unmarked) [Compound I-222], for which the half-maximal effective concentration (EC50) was < 0.01 µM.
For `O=C(NC1(C(=O)O)C2CC3CC(C2)CC1C3)c1cnc(N2CC3(CCOCC3)c3cc(OC4CN(C(=O)OCc5ccccc5)C4)ccc32)nc1C(F)(F)F` (centres unmarked) [Compound I-224], the EC50 was < 0.01 µM.
As to `O=C(NC1(C(=O)O)C2CC3CC(C2)CC1C3)c1cnc(-c2cn(C3CCC(F)(F)CC3)c3ccc(OC4CCN(C5COC5)CC4)cc23)nc1C(F)(F)F` (centres unmarked) [Compound I-225], the concentration giving a half-maximal response (EC50) lay in the range of 0.01 to 0.1 µM.
Regarding `O=C(NC1(C(=O)O)C2CC3CC(C2)CC1C3)c1cnc(N2CC3(CCOCC3)c3cc(OC4CN(C5COC5)C4)ccc32)nc1C(F)(F)F` (centres unmarked) [Compound I-226], the EC50 was < 0.01 µM.
The same measure, in the same setting: the same measure for `Cc1nc(N2CC3(CCOCC3)c3cc(OC4CCN(c5ncccn5)CC4)ccc32)nc(C(F)(F)F)c1C(=O)NC1(C(=O)O)C2CC3CC(C2)CC1C3` (centres unmarked) [Compound I-229]: < 0.01 µM; for `O=C(NC1(C(=O)O)C2CC3CC(C2)CC1C3)c1cnc(N2CC3(CCOCC3)c3cc(OC4CN(C(=O)C5COC5)C4)ccc32)nc1C(F)(F)F` (centres unmarked) [Compound I-230]: < 0.01 µM.
Same read-out and setting: as for `Cn1cc(CN2CC(Oc3ccc4c(c3)C3(CCOCC3)CN4c3ncc(C(=O)NC4(C(=O)O)C5CC6CC(C5)CC4C6)c(C(F)(F)F)n3)C2)cn1` (centres unmarked) [Compound I-231], the figure is < 0.01 µM.
With `O=C(NC1(C(=O)O)C2CC3CC(C2)CC1C3)c1cnc(-c2cn(C3CCC(F)(F)CC3)c3ccc(O[C@H]4CC[C@H](n5cccn5)CC4)cc23)nc1C(F)(F)F` (some centres unmarked) [Compound I-232], the concentration giving a half-maximal response (EC50) was < 0.01 µM.
As to `O=C(NC1(C(=O)O)C2CC3CC(C2)CC1C3)c1cnc(-c2cn(C3CCC(F)(F)CC3)c3cc(OC4CCN(c5nccs5)CC4)ccc23)nc1C(F)(F)F` (centres unmarked) [Compound I-236], the EC50 is < 0.01 µM.
As to `O=C(NC1(C(=O)O)C2CC3CC(C2)CC1C3)c1ccc(-c2cn(C3CCC(F)(F)CC3)c3cc(OC4CCN(C5COC5)CC4)ccc23)nc1C(F)(F)F` (centres unmarked) [Compound I-240], the concentration for a half-maximal effect (EC50) is < 0.01 µM.
`O=C(NC1(C(=O)O)C2CC3CC(C2)CC1C3)c1cnc(-c2cn(C3CCC(F)(F)CC3)c3cc(OC4CCN(c5ncccc5F)CC4)ccc23)nc1C(F)(F)F` (centres unmarked) [Compound I-241]: the 50% effective concentration (EC50) is < 0.01 µM.
Still for that read-out and setting: as for `O=C(NC1(C(=O)O)C2CC3CC(C2)CC1C3)c1cnc(-c2cn(C3CCC(F)(F)CC3)c3cc(OC4CCN(C5CCOCC5)CC4)ccc23)nc1C(F)(F)F` (centres unmarked) [Compound I-242], the figure is < 0.01 µM; as for `O=C(NC1(C(=O)O)C2CC3CC(C2)CC1C3)c1cnc(N2CC3(CCCC3)c3cc(OC4CCN(c5ncccn5)CC4)ccc32)nc1C(F)(F)F` (centres unmarked) [Compound I-244], < 0.01 µM; as for `O=C(NC1(C(=O)O)C2CC3CC(C2)CC1C3)c1cnc(-c2cn(C3CCC(F)(F)CC3)c3cc(O[C@@H]4CCN(C5COC5)C4)ccc23)nc1C(F)(F)F` (some centres unmarked) [Compound I-246], < 0.01 µM.
Consider `CC(=O)N1CCC(Oc2ccc3c(-c4ncc(C(=O)NC5(C(=O)O)C6CC7CC(C6)CC5C7)c(C(F)(F)F)n4)cn(C4CCC(F)(F)CC4)c3c2)CC1` (centres unmarked) [Compound I-247], for which the EC50 was < 0.01 µM.
Same read-out and setting: the same measure for `O=C(NC1(C(=O)O)C2CC3CC(C2)CC1C3)c1cnc(-c2cn(C3CCC(F)(F)CC3)c3cc(O[C@H]4CCN(C5COC5)C4)ccc23)nc1C(F)(F)F` (some centres unmarked) [Compound I-248]: < 0.01 µM; for `O=C(NC1(C(=O)O)C2CC3CC(C2)CC1C3)c1ccc(-c2cn(C3CS(=O)(=O)C3)c3cc(OC4CCN(c5ncccn5)CC4)ccc23)nc1C(F)(F)F` (centres unmarked) [Compound I-251]: < 0.01 µM; for `O=C(NC1(C(=O)O)C2CC3CC(C2)CC1C3)c1ccc(-c2cn(CC(F)(F)F)c3cc(OC4CCN(c5ncccn5)CC4)ccc23)nc1C(F)(F)F` (centres unmarked) [Compound I-252]: < 0.01 µM.
On the same count and under the same terms, the same measure for `COCCN1CCC(Oc2ccc3c(-c4ncc(C(=O)NC5(C(=O)O)C6CC7CC(C6)CC5C7)c(C(F)(F)F)n4)cn(C4CCC(F)(F)CC4)c3c2)CC1` (centres unmarked) [Compound I-253]: < 0.01 µM; for `CS(=O)(=O)CCN1CCC(Oc2ccc3c(-c4ncc(C(=O)NC5(C(=O)O)C6CC7CC(C6)CC5C7)c(C(F)(F)F)n4)cn(C4CCC(F)(F)CC4)c3c2)CC1` (centres unmarked) [Compound I-254]: 0.01 to 0.1 µM.
On the same count and under the same terms, the same measure for `COC(=O)N1CCC(Oc2ccc3c(-c4ncc(C(=O)NC5(C(=O)O)C6CC7CC(C6)CC5C7)c(C(F)(F)F)n4)cn(C4CCC(F)(F)CC4)c3c2)CC1` (centres unmarked) [Compound I-255]: < 0.01 µM.
Consider `O=C(NC1(C(=O)O)C2CC3CC(C2)CC1C3)c1cnc(-c2cn(C3CCC(F)(F)CC3)c3cc(OC4CCN(C(=O)C5CC5)CC4)ccc23)nc1C(F)(F)F` (centres unmarked) [Compound I-258], for which the EC50 is < 0.01 µM.
As to `O=C(NC1(C(=O)O)C2CC3CC(C2)CC1C3)c1cnc(-c2cn(C3CCC(F)(F)CC3)c3cc(OC4CCN(S(=O)(=O)C5CC5)CC4)ccc23)nc1C(F)(F)F` (centres unmarked) [Compound I-259], the 50% effective concentration (EC50) is < 0.01 µM.
The same measure, in the same setting: as for `O=C(NC1(C(=O)O)C2CC3CC(C2)CC1C3)c1cnc(-c2cn(C3CCC(F)(F)CC3)c3cc(OC4CCN(C(=O)c5ncccn5)CC4)ccc23)nc1C(F)(F)F` (centres unmarked) [Compound I-260], the figure is 0.01 to 0.1 µM.
On the same count and under the same terms, as for `O=C(NC1(C(=O)O)C2CC3CC(C2)CC1C3)c1ccc(-c2cn(CC3CC(F)(F)C3)c3cc(OC4CCN(c5ncccn5)CC4)ccc23)nc1C(F)(F)F` (centres unmarked) [Compound I-264], the figure is < 0.01 µM; as for `O=C(NC1(C(=O)O)C2CC3CC(C2)CC1C3)c1ccc(-c2cn(CC3COC3)c3cc(OC4CCN(c5ncccn5)CC4)ccc23)nc1C(F)(F)F` (centres unmarked) [Compound I-265], < 0.01 µM; as for `CC1CN(c2ncccn2)CCC1Oc1ccc2c(-c3ncc(C(=O)NC4(C(=O)O)C5CC6CC(C5)CC4C6)c(C(F)(F)F)n3)cn(C3CCC(F)(F)CC3)c2c1` (centres unmarked) [Compound I-273], < 0.01 µM.
The same measure, in the same setting: as for `O=C(NC1(C(=O)O)C2CC3CC(C2)CC1C3)c1cnc(N2CC3(CCOCC3)c3cc(OC4CCN(c5ncc(C(F)(F)F)cn5)CC4)ccc32)nc1C(F)(F)F` (centres unmarked) [Compound I-274], the figure is < 0.01 µM.
As to `O=C(NC1(C(=O)O)C2CC3CC(C2)CC1C3)c1cnc(-c2cn(C3CCC(F)(F)CC3)c3cc(OCc4ccc5c(c4)OCC5)ccc23)nc1C(F)(F)F` (centres unmarked) [Compound I-278], the EC50 is < 0.01 µM.
As for `O=C(NC1(C(=O)O)C2CC3CC(C2)CC1C3)c1cnc(N2CC3(CCOCC3)c3cc(-c4ccccc4)ccc32)nc1C(F)(F)F` (centres unmarked) [Compound I-279], the EC50 was < 0.01 µM.
Still for that read-out and setting: as for `O=C(NC1(C(=O)O)C2CC3CC(C2)CC1C3)c1cnc(N2CC3(CCOCC3)c3cc(Nc4ccccn4)ccc32)nc1C(F)(F)F` (centres unmarked) [Compound I-280], the figure is < 0.01 µM; as for `CC1(C)CCC(n2cc(-c3ccc(C(=O)NC4(C(=O)O)C5CC6CC(C5)CC4C6)c(C(F)(F)F)n3)c3ccc(OC4CCN(c5ncccn5)CC4)cc32)CC1` (centres unmarked) [Compound I-281], < 0.01 µM.
On the same count and under the same terms, the same measure for `Cc1c(OC2CCN(c3ncccn3)CC2)ccc2c(-c3ncc(C(=O)NC4(C(=O)O)C5CC6CC(C5)CC4C6)c(C(F)(F)F)n3)cn(C3CCC(F)(F)CC3)c12` (centres unmarked) [Compound I-282]: < 0.01 µM; for `O=C(NC1(C(=O)O)C2CC3CC(C2)CC1C3)c1cnc(N2CC3(CCOCC3)c3cc(F)ccc32)nc1C(F)(F)F` (centres unmarked) [Compound I-284]: < 0.01 µM.
